Legend:
Assay type in all cases: in vivo
[1] = tested on: barnyardgrass (Echinochloa crus-galli); assay: Test G Pre-Emergence Protocol; conditions: Echinochloa crus-galli, pre-emergence, 312 h, evaluated after 13 days; for pest or weed control at 15.625 g/ha: 15.625 g ai/ha, read-out: Barnyard grass damage rating (100=total damage to plant; 0=no damage to plant); for pest or weed control at 62.5 g/ha: 62.5 g ai/ha, 100=total damage to plant, 0=no damage to plant, read-out: plant damage rating, Barnyardgrass; for pest or weed control at 250 g/ha: 250 g ai/ha, read-out: Barnyardgrass damage rating (100=total damage to plant; 0=no damage to plant)
In short: (§1)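 Glasshouse pre-emergence test: soil-sown seeds, sprayed after 1 d at 15.625, 62.5 or 250 g/ha. Conditions 24/16° C day/night, 14 h light, 65% humidity, watering twice daily. Rating 13 d post-spray (100 = total damage).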

corn (Zea mays) [2] = assay: Test G Pre-Emergence Protocol; conditions: Zea mays, pre-emergence, 312 h, evaluated after 13 days; for plant injury at 15.625 g/ha: 15.625 g ai/ha; for plant injury at 15.625 g/ha / plant injury at 250 g/ha: read-out: Corn damage rating (100=total damage to plant; 0=no damage to plant); for plant injury at 62.5 g/ha: 62.5 g ai/ha, 100=total damage to plant, 0=no damage to plant, read-out: plant damage rating, Corn; for plant injury at 250 g/ha: 250 g ai/ha
In short: as §1

[3] = tested on: giant foxtail (Setaria faberi); assay: Test G Pre-Emergence Protocol; conditions: Setaria faberi, pre-emergence, 312 h, evaluated after 13 days; for pest or weed control at 15.625 g/ha: 15.625 g ai/ha; for pest or weed control at 15.625 g/ha / pest or weed control at 250 g/ha: read-out: Foxtail, Giant damage rating (100=total damage to plant; 0=no damage to plant); for pest or weed control at 62.5 g/ha: 62.5 g ai/ha, 100=total damage to plant, 0=no damage to plant, read-out: plant damage rating, Foxtail, Giant; for pest or weed control at 250 g/ha: 250 g ai/ha
In short: as §1

[4] = tested on: ivy-leaved morning glory (Ipomoea hederacea); assay: Test G Pre-Emergence Protocol; conditions: Ipomoea, pre-emergence, 312 h, evaluated after 13 days; for pest or weed control at 15.625 g/ha: 15.625 g ai/ha, read-out: Morning-glory, Ivy-leaved damage rating (100=total damage to plant; 0=no damage to plant); for pest or weed control at 62.5 g/ha: 62.5 g ai/ha, 100=total damage to plant, 0=no damage to plant, read-out: plant damage rating, Morningglory, Ivy-leaved; for pest or weed control at 250 g/ha: 250 g ai/ha, read-out: Morningglory, Ivy-leaved damage rating (100=total damage to plant; 0=no damage to plant)
In short: as §1

[5] = tested on: redroot pigweed (Amaranthus retroflexus); assay: Test G Pre-Emergence Protocol; conditions: Amaranthus retroflexus, pre-emergence, 312 h, evaluated after 13 days; for pest or weed control at 15.625 g/ha: 15.625 g ai/ha; for pest or weed control at 15.625 g/ha / pest or weed control at 250 g/ha: read-out: Pigweed, Redroot damage rating (100=total damage to plant; 0=no damage to plant); for pest or weed control at 62.5 g/ha: 62.5 g ai/ha, 100=total damage to plant, 0=no damage to plant, read-out: plant damage rating, Pigweed, Redroot; for pest or weed control at 250 g/ha: 250 g ai/ha
In short: as §1

[6] = tested on: velvetleaf (Abutilon theophrasti); assay: Test G Pre-Emergence Protocol; conditions: Abutilon theophrasti, pre-emergence, 312 h, evaluated after 13 days; for pest or weed control at 15.625 g/ha: 15.625 g ai/ha; for pest or weed control at 15.625 g/ha / pest or weed control at 250 g/ha: read-out: Velvetleaf damage rating (100=total damage to plant; 0=no damage to plant); for pest or weed control at 62.5 g/ha: 62.5 g ai/ha, 100=total damage to plant, 0=no damage to plant, read-out: plant damage rating, Velvetleaf; for pest or weed control at 250 g/ha: 250 g ai/ha
In short: as §1

[7] = tested on: barnyardgrass (Echinochloa crus-galli); assay: Test G Post-Emergence Protocol; conditions: Echinochloa crus-galli, post-emergence, 312 h; for pest or weed control at 15.625 g/ha: 15.625 g ai/ha, evaluated after 13 days (100=total damage to plant; 0=no damage to plant), read-out: Barnyardgrass damage rating; for pest or weed control at 62.5 g/ha: 62.5 g ai/ha, read-out: Barnyardgrass damage rating (100=total damage to plant; 0=no damage to plant); for pest or weed control at 62.5 g/ha / pest or weed control at 250 g/ha: evaluated after 13 days; for pest or weed control at 250 g/ha: 250 g ai/ha, read-out: damage to plant, Barnyardgrass (100=total damage to plant; 0=no damage to plant)
In short: (§2)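 Scores run 0 (no damage) to 100 (total damage) and were taken 13 days after spraying. Plants had been raised in pots for 8 days under glasshouse control (24/16 °C, 14 h photoperiod, 65% humidity) and then treated at 15.625, 62.5 or 250 g/ha.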

corn (Zea mays) [8] = assay: Test G Post-Emergence Protocol; conditions: Zea mays, post-emergence, 312 h; for plant injury at 15.625 g/ha: 15.625 g ai/ha, evaluated after 13 days (100=total damage to plant; 0=no damage to plant), read-out: Corn damage rating; for plant injury at 62.5 g/ha: 62.5 g ai/ha, read-out: Corn damage rating (100=total damage to plant; 0=no damage to plant); for plant injury at 62.5 g/ha / plant injury at 250 g/ha: evaluated after 13 days; for plant injury at 250 g/ha: 250 g ai/ha, read-out: damage to plant, Corn (100=total damage to plant; 0=no damage to plant)
In short: as §2

[9] = tested on: giant foxtail (Setaria faberi); assay: Test G Post-Emergence Protocol; conditions: Setaria faberi, post-emergence, 312 h; for pest or weed control at 15.625 g/ha: 15.625 g ai/ha, evaluated after 13 days (100=total damage to plant; 0=no damage to plant), read-out: Foxtail, Giant damage rating; for pest or weed control at 62.5 g/ha: 62.5 g ai/ha, read-out: Foxtail, Giant damage rating (100=total damage to plant; 0=no damage to plant); for pest or weed control at 62.5 g/ha / pest or weed control at 250 g/ha: evaluated after 13 days; for pest or weed control at 250 g/ha: 250 g ai/ha, read-out: damage to plant, Foxtail, Giant (100=total damage to plant; 0=no damage to plant)
In short: as §2

[10] = tested on: ivy-leaved morning glory (Ipomoea hederacea); assay: Test G Post-Emergence Protocol; conditions: Ipomoea, post-emergence, 312 h; for pest or weed control at 15.625 g/ha: 15.625 g ai/ha, evaluated after 13 days (100=total damage to plant; 0=no damage to plant), read-out: Morningglory, Ivy-leaved damage rating; for pest or weed control at 62.5 g/ha: 62.5 g ai/ha, read-out: Morningglory, Ivy-leaved damage rating (100=total damage to plant; 0=no damage to plant); for pest or weed control at 62.5 g/ha / pest or weed control at 250 g/ha: evaluated after 13 days; for pest or weed control at 250 g/ha: 250 g ai/ha, read-out: damage to plant, Morningglory, Ivy-leaved (100=total damage to plant; 0=no damage to plant)
In short: as §2

[11] = tested on: redroot pigweed (Amaranthus retroflexus); assay: Test G Post-Emergence Protocol; conditions: Amaranthus retroflexus, post-emergence, 312 h; for pest or weed control at 15.625 g/ha: 15.625 g ai/ha, evaluated after 13 days (100=total damage to plant; 0=no damage to plant), read-out: Pigweed, Redroot damage rating; for pest or weed control at 62.5 g/ha: 62.5 g ai/ha, read-out: Pigweed, Redroot damage rating (100=total damage to plant; 0=no damage to plant); for pest or weed control at 62.5 g/ha / pest or weed control at 250 g/ha: evaluated after 13 days; for pest or weed control at 250 g/ha: 250 g ai/ha, read-out: damage to plant, Pigweed, Redroot (100=total damage to plant; 0=no damage to plant)
In short: as §2

[12] = tested on: velvetleaf (Abutilon theophrasti); assay: Test G Post-Emergence Protocol; conditions: Abutilon theophrasti, post-emergence, 312 h; for pest or weed control at 15.625 g/ha: 15.625 g ai/ha, evaluated after 13 days (100=total damage to plant; 0=no damage to plant), read-out: Velvetleaf damage rating; for pest or weed control at 62.5 g/ha: 62.5 g ai/ha, read-out: Velvetleaf damage rating (100=total damage to plant; 0=no damage to plant); for pest or weed control at 62.5 g/ha / pest or weed control at 250 g/ha: evaluated after 13 days; for pest or weed control at 250 g/ha: 250 g ai/ha, read-out: damage to plant, Velvetleaf (100=total damage to plant; 0=no damage to plant)
In short: as §2

Compound	pest or weed control at 15.625 g/ha [1]	pest or weed control at 62.5 g/ha [1]	pest or weed control at 250 g/ha [1]	plant injury at 15.625 g/ha (corn (Zea mays) [2])	plant injury at 62.5 g/ha (corn (Zea mays) [2])	plant injury at 250 g/ha (corn (Zea mays) [2])	pest or weed control at 15.625 g/ha [3]	pest or weed control at 62.5 g/ha [3]	pest or weed control at 250 g/ha [3]	pest or weed control at 15.625 g/ha [4]	pest or weed control at 62.5 g/ha [4]	pest or weed control at 250 g/ha [4]	pest or weed control at 15.625 g/ha [5]	pest or weed control at 62.5 g/ha [5]	pest or weed control at 250 g/ha [5]	pest or weed control at 15.625 g/ha [6]	pest or weed control at 62.5 g/ha [6]	pest or weed control at 250 g/ha [6]	pest or weed control at 15.625 g/ha [7]	pest or weed control at 62.5 g/ha [7]	further results
CN1C[C@@H](c2ccc(C(F)(F)F)cc2)[C@H](C(=O)Nc2ccc(F)cc2C(F)(F)F)C1=O (racemic) [Compound 1616]	0%	0%	60%	0%	0%	0%	0%	80%	90%	0%	0%	20%	0%	20%	60%	0%	0%	50%	10%	10%	pest or weed control at 250 g/ha [7]: 60%; plant injury at 15.625 g/ha (corn (Zea mays) [8]): 0%; plant injury at 62.5 g/ha (corn (Zea mays) [8]): 0%; plant injury at 250 g/ha (corn (Zea mays) [8]): 0%; pest or weed control at 15.625 g/ha [9]: 40%; pest or weed control at 62.5 g/ha [9]: 20%; pest or weed control at 250 g/ha [9]: 80%; pest or weed control at 15.625 g/ha [10]: 0%; pest or weed control at 62.5 g/ha [10]: 10%; pest or weed control at 250 g/ha [10]: 20%; pest or weed control at 15.625 g/ha [11]: 20%; pest or weed control at 62.5 g/ha [11]: 50%; pest or weed control at 250 g/ha [11]: 60%; pest or weed control at 15.625 g/ha [12]: 10%; pest or weed control at 62.5 g/ha [12]: 0%; pest or weed control at 250 g/ha [12]: 30%
Cc1cccc(NC(=O)[C@@H]2C(=O)N(C)C[C@H]2c2ccc(C(F)(F)F)cc2)c1Br (racemic) [Compound 1617]	10%	30%	80%	0%	0%	0%	20%	80%	90%	0%	0%	0%	0%	10%	20%	0%	0%	10%	0%	0%	pest or weed control at 250 g/ha [7]: 60%; plant injury at 15.625 g/ha (corn (Zea mays) [8]): 0%; plant injury at 62.5 g/ha (corn (Zea mays) [8]): 0%; plant injury at 250 g/ha (corn (Zea mays) [8]): 0%; pest or weed control at 15.625 g/ha [9]: 20%; pest or weed control at 62.5 g/ha [9]: 40%; pest or weed control at 250 g/ha [9]: 70%; pest or weed control at 15.625 g/ha [10]: 0%; pest or weed control at 62.5 g/ha [10]: 0%; pest or weed control at 250 g/ha [10]: 0%; pest or weed control at 15.625 g/ha [11]: 0%; pest or weed control at 62.5 g/ha [11]: 0%; pest or weed control at 250 g/ha [11]: 0%; pest or weed control at 15.625 g/ha [12]: 0%; pest or weed control at 62.5 g/ha [12]: 0%; pest or weed control at 250 g/ha [12]: 0%
CN1C[C@@H](c2ccc(C(F)(F)F)cc2)[C@H](C(=O)Nc2cc(F)c(F)c(F)c2F)C1=O (racemic) [Compound 1625]	0%	0%	40%	0%	0%	0%	0%	10%	80%	0%	10%	10%	0%	20%	10%	0%	0%	10%	0%	30%	pest or weed control at 250 g/ha [7]: 40%; plant injury at 15.625 g/ha (corn (Zea mays) [8]): 0%; plant injury at 62.5 g/ha (corn (Zea mays) [8]): 0%; plant injury at 250 g/ha (corn (Zea mays) [8]): 10%; pest or weed control at 15.625 g/ha [9]: 0%; pest or weed control at 62.5 g/ha [9]: 50%; pest or weed control at 250 g/ha [9]: 80%; pest or weed control at 15.625 g/ha [10]: 0%; pest or weed control at 62.5 g/ha [10]: 0%; pest or weed control at 250 g/ha [10]: 20%; pest or weed control at 15.625 g/ha [11]: 0%; pest or weed control at 62.5 g/ha [11]: 30%; pest or weed control at 250 g/ha [11]: 50%; pest or weed control at 15.625 g/ha [12]: 0%; pest or weed control at 62.5 g/ha [12]: 10%; pest or weed control at 250 g/ha [12]: 40%

Source: US12077503B2, “Substituted cyclic amides and their use as herbicides” (FMC CORPORATION, priority 2015, dated 2024)
